Data as given in patent US4677069A, “Clam derived proteinases” (priority 1984, dated 1987).
Where a name gives a salt, the structure may show the parent alone. *1 amine or outer side, *2 acyl side, *3 side chain or, on linkers, in order; H or OH if unused. Where a SMILES comes first, the peptide text is derived from it. [ ]: non-standard residue; d: D form. The star is where a group is joined. Sta = CC(C)C[C@H](N)[C@@H](O)CC(=O)O; Isovaleryl = CC(C)CC(=O)*; CO = O=C([*:1])[*:2]

B1: Gastricin: carboxyl proteinase, stomach (protein, UniProt P20142 60-388, looked up)
Gastricsin: SVTYEPMAYMDAAYFGEISIGTPPQNFLVLFDTGSSNLWVPSVYCQSQACTSHSRFNPSESSTYSTNGQTFSLQYGSGSLTGFFGYDTLTVQSIQVPNQEFGLSENEPGTNFVYAQFDGIMGLAYPALSVDEATTAMQGMVQEGALTSPVFSVYLSNQQGSSGGAVVFGGVDSSLYTGQIYWAPVTQELYWQIGIEEFLIGGQASGWCSEGCQAIVDTGTSLLTVPQQYMSALLQATGAQEDEYGQFLVNCNSIQNLPSLTFIINGVEFPLPPSSYILSNNGYCTVGVEPTYLSSQNGQPLWILGDVFLRSYYSVYDLGNNRVGFATAA

Assays:
PI & II [1] = assay: Inhibitor effect on proteolytic activity of PI & II; assay type: biochemical, surf clam, Spisula solidissima
Description: All inhibitors were from Sigma Co. (St. Louis, MO). The stock solutions were prepared by dissolving the inhibitors either in water or dimethyl sulfoxide (DMSO) as following:
(§1) Water--Leupeptin hemisulfate (60 ug/ml), Antipain (60 ug/ml), Poly-L-lysine(60 mg/ml), soybean trypsin inhibitor (60 mg/ml), ovomucoid trypsin inhibitor (60 mg/mL), Tosyl-lysine chloromethyl ketone (TLCK, 60 mM) and iodoacetamide (60 mM).
(§2) DMSO--Pepstatin (60 ug/ml), Tosyl-phenylalanine chloromethyl ketone (TPCK, 60 mM), Phenylmethanesulphonylfluoride (PMSF, 60 mM), and Diazoacetylnorleucine methyl ester (DNME, 60 mM).

PIII [2] = assay: Inhibitor effect on proteolytic activity of PIII; assay type: biochemical, surf clam, Spisula solidissima
Description: The effect of inhibitors on proteolytic activity was determined by preincubating a mixture of inhibitor stock solution (0.05 ml), 0.2M citrate-phosphate buffer at pH 2.8 (1.7 ml) and enzyme solution (0.25 ml) for 10 min at room temperature before the addition of substrate. All inhibitors were from Sigma Co. (St. Louis, MO). The stock solutions were prepared by dissolving the inhibitors either in water or dimethyl sulfoxide (DMSO) as following:
as §1, §2

PIII [3] = assay: Heavy metal effect on proteolytic activity of PIII; assay type: biochemical, surf clam, Spisula solidissima; conditions: for effect of metal ion on PIII: general assay procedure; for PIII % Retention / PIII Activity (HU/ml): metal ions 0.5 mM, pH 2.8; for PIII Activity (HU/ml): control 258.7
Description: (§3) The effect of heavy metals on proteolytic activity was determined by preincubating a mixture of 5 mM heavy metal stock solution (0.3 ml), 0.2M citrate-phosphate buffer at pH 2.8 (1.6 ml) and enzyme solution (0.1 ml) at room temperature for 10 min before the addition of substrate. All stock solutions of metals were made from chloride salts, except that silver was prepared from the nitrate salt.

PI & II [4] = assay: Heavy metal effect on proteolytic activity of PI & II; assay type: biochemical, surf clam, Spisula solidissima; conditions: for PI & II % Retention / PI & II Activity (HU/ml): metal ions 0.5 mM, pH 2.8; for PI & II Activity (HU/ml): control 214.7
Description: as §3

[5] = cited from earlier work; for Optimum pH: Table 7, literature
P2.2 enzyme = assay: Stabilization of P2.2 activity with reducing and chelating agents; conditions: EDTA or cysteine alone
casein = assay: Relative ratio of clotting to proteolytic activity, casein; assay type: biochemical; conditions: 30° C., pH 6.2 of milk clotting assay, calf rennet = 1.00
Description: (§4) The clotting activity of milk coagulants was determined according to the method of Berridge, with modifications (1952, The Analyst, 77: 57). To 0.05 ml (unless otherwise mentioned) of milk coagulant placed in a 25-ml test tube was added 10 ml of tempered substrate solution. The substrate solution was 10% reconstituted skim milk powder containing 10 mM CaCl2. The pH of this substrate solution was approximately 6.2. Where indicated, the pH of the substrate solution was adjusted with 0.5 N NaOH or HCl while agitating. The mixture of coagulant and substrate was then incubated at 30° C. water bath unless specifically indicated. Near the expected clotting time, which was determined by a preliminary test, the test tube was tilted ~60° at an interval of 5 seconds. The moment of the first flake appearance of the liquid flowing down the tube was recorded as milk clotting time.
(§5) Milk coagulants were assayed for proteolytic activity according to the method described in Example 1.
(§6) The ratio of milk clotting activity to proteolytic activity against hemoglobin is often used to assess the suitability of enzymes as rennet substitute (Green, 1972, supra). Clam rennet had considerably lower ratio of clotting to […] activity at optimum pH of each individual enzyme. […]

Hemoglobin [6] = assay: Relative ratio of clotting to proteolytic activity, hemoglobin; assay type: biochemical; conditions: 30° C., optimum pH of each enzyme (in parentheses), calf rennet = 1.00
Description: as §4, §5, §6

Hemoglobin [7] = conditions: pH 2.0, 37° C., Sigma lot; cited from earlier work
[8] = Milk clotting time determination; assay type: biochemical
Description: as §4

[9] = 1 ug/ml, pH 2.8, 10 min preincubation

Molecule	PIII % Retention (PIII [3])	PIII Activity (HU/ml) (PIII [3])	PI & II % Retention (PI & II [4])	PI & II Activity (HU/ml) (PI & II [4])	Optimum pH [5]	also measured
CC(C)CC(=O)N[C@H](C(=O)N[C@H](C(=O)N[C@@H](CC(C)C)[C@@H](O)CC(=O)N[C@@H](C)C(=O)N[C@@H](CC(C)C)[C@@H](O)CC(=O)O)C(C)C)C(C)C [Pepstatin] (Isovaleryl-VV[Sta]A[Sta]-OH)	–	–	–	–	–	effect of inhibitor on PI&II (PI & II [1]): strongly inhibited; % Residual activity PI & II, final conc. 1 ug/ml (PI & II [1]; [9]): 25.0%; % Residual activity PIII, final conc. 1 ug/ml (PIII [2]; [9]): 99.4%
[Hg+2] [Hg++]	0.0%	0.0 HU/ml	87.1%	187.0 HU/ml	–	effect of metal ion on PIII (PIII [3]): extremely sensitive
CCCC[C@H](NC(=O)C=[N+]=[N-])C(=O)OC [DNME, diazoacetylnorleucine methyl ester]	–	–	–	–	–	% Residual activity PI & II, final conc. 1 mM (PI & II [1]; pH 2.8, 10 min preincubation): 100.0%; effect of DNME on PI&II in the presence of cupric ions (PI & II [1]; with cupric ions, up to 4 hours of preincubation): not sensitive; effect of inhibitor on PIII (PIII [2]): very sensitive; % Residual activity PIII, final conc. 1 mM (PIII [2]; pH 2.8, 10 min preincubation): 64.9%
[Cd+2] [Cd++]	96.4%	249.4 HU/ml	96.3%	206.7 HU/ml	–	–
Cc1ccc(S(=O)(=O)NC(Cc2ccccc2)C(=O)CCl)cc1 (stereo not drawn) [TPCK, tosylphenylalanine chloromethyl ketone]	–	–	–	–	–	% Residual activity PI & II, final conc. 1 mM (PI & II [1]; pH 2.8, 10 min preincubation): 96.4%; effect of inhibitor on PIII (PIII [2]): inhibited; % Residual activity PIII, final conc. 1 mM (PIII [2]; pH 2.8, 10 min preincubation): 21.2%
Cathepsin D: mammalian carboxyl proteinase, literature comparator	–	–	–	–	2.8-5.0	Activators, mammalian cathepsins ([5]; Table 11, literature): none; Temperature optima, mammalian cathepsins ([5]; Table 11, literature): 45 °C; pH optima hemoglobin, mammalian cathepsins ([5]; Table 11, literature): 2.8-3.5; pH stability, mammalian cathepsins ([5]; unstable at pH > 7, literature): unstable
[Cu+2] [Cu++]	18.0%	46.7 HU/ml	95.7%	205.4 HU/ml	–	effect of cupric ion on PIII at 1 mM (PIII [3]; 1 mM cupric ion): Almost total inactivation; effect of metal ion on PIII (PIII [3]): very sensitive; effect of cupric ion on PI&II at or below 1 mM (PI & II [4]; at or below 1 mM cupric ion): not sensitive
[Ni+2] [Ni++]	92.5%	239.4 HU/ml	96.0%	206.0 HU/ml	–	–
Trypsin	–	–	–	–	~ 8.0	–
Cc1ccc(S(=O)(=O)NC(CCCCN)C(=O)CCl)cc1 (stereo not drawn) [TLCK, tosyllysine chloromethyl ketone]	–	–	–	–	–	% Residual activity PI & II, final conc. 1 mM (PI & II [1]; pH 2.8, 10 min preincubation): 96.2%; effect of inhibitor on PIII (PIII [2]): inhibited; % Residual activity PIII, final conc. 1 mM (PIII [2]; pH 2.8, 10 min preincubation): 16.8%
Kallikrein	–	–	–	–	8.6-8.8	–
Renin	–	–	–	–	5.5-8.0	–
O=C(O)CN(CCN(CC(=O)O)CC(=O)O)CC(=O)O [Na2 --EDTA]	–	–	–	–	–	optimum concentration for stabilizing P2.2, reagent alone (P2.2 enzyme): 10 mM
[Pb+2] [Pb++]	96.9%	250.7 HU/ml	99.7%	214.0 HU/ml	–	effect of metal ion on PIII (PIII [3]): didn't inhibit; PIII activity detected, addition order of buffer and inhibitor solution reversed (PIII [3]; reversed addition order): 20.7%
cathepsin L: thiol proteinase, liver	–	–	–	–	5.0-5.5	–
Cl.N[C@@H](CS)C(=O)O [Cysteine-HCl]	–	–	–	–	–	optimum concentration for stabilizing P2.2, reagent alone (P2.2 enzyme): 2.5 mM
Elastase	–	–	–	–	8.2-8.5	–

Molecule	PIII % Retention (PIII [3])	PIII Activity (HU/ml) (PIII [3])	PI & II % Retention (PI & II [4])	PI & II Activity (HU/ml) (PI & II [4])	Optimum pH [5]	also measured
[Ca+2] [Ca++]	99.2%	256.7 HU/ml	97.5%	209.4 HU/ml	–	–
NC(=O)CI [Iodoacetamide]	–	–	–	–	–	% Residual activity PI & II, final conc. 1 mM (PI & II [1]; pH 2.8, 10 min preincubation): 98.9%; effect of inhibitor on PIII (PIII [2]): inhibited; % Residual activity PIII, final conc. 1 mM (PIII [2]; pH 2.8, 10 min preincubation): 78.3%
O=S(=O)(F)Cc1ccccc1 [PMSF, phenylmethanesulphonylfluoride]	–	–	–	–	–	% Residual activity PI & II, final conc. 1 mM (PI & II [1]; pH 2.8, 10 min preincubation): 102.2%; effect of inhibitor on PIII (PIII [2]): inhibited; % Residual activity PIII, final conc. 1 mM (PIII [2]; pH 2.8, 10 min preincubation): 53.5%
[Co+2] [Co++]	90.7%	234.7 HU/ml	96.9%	208.0 HU/ml	–	–
[Mg+2] [Mg++]	98.2%	254.0 HU/ml	98.5%	211.4 HU/ml	–	–
Urokinase	–	–	–	–	7.5-7.6	–
Chymotrypsin	–	–	–	–	~ 8.0	–
[Sn+2] [Sn++]	83.7%	216.5 HU/ml	88.8%	190.6 HU/ml	–	effect of metal ion on PIII (PIII [3]): inhibits PIII slightly
Cathepsin G	–	–	–	–	~ 7.5	–
[Ag+] [Ag+]	95.0%	245.8 HU/ml	102.2%	219.3 HU/ml	–	–
Poly-L-lysine	–	–	–	–	–	% Residual activity PI & II, final conc. 1 ug/ml (PI & II [1]; pH 2.8): 99.3%; % Residual activity PIII, final conc. 1 ug/ml (PIII [2]; pH 2.8): 101.1%
Porcine pepsin: two-time crystallized and lyophilized powder of porcine pepsin (Sigma Co.)	–	–	–	–	–	relative ratio of clotting to proteolytic activity, Casein (casein): 0.24; relative ratio of clotting to proteolytic activity, Hemoglobin (Hemoglobin [6]): 0.30; specification of the pepsin lot (Hemoglobin [7]): 2900 units/mg solid; Linear regression X-Intercept (Table 17) ([8]; 1/tc vs C, equation 3-3): 0.0019; Linear regression Y-Intercept (Table 17) ([8]; 1/tc vs C, equation 3-3): -0.00013; Linear regression Slope (Table 17) ([8]; 1/tc vs C, equation 3-3, FIG. 7): 0.06597; Linear regression Slope (Table 16) ([8]; clotting time tc vs 1/C, equation 3-2): 16.5; milk clotting at pH 6.8 or above ([8]; milk pH 6.8 or above): unable to clot milk; Linear regression X-Intercept (Table 16) ([8]; tc vs 1/C, equation 3-2): 1.9; Linear regression Y-Intercept (Table 16) ([8]; tc vs 1/C, equation 3-2): -8.7
CC(=O)N[C@@H](CC(C)C)C(=O)N[C@@H](CC(C)C)C(=O)N[C@H](C=O)CCCNC(=N)N [Leupeptin hemisulfate]	–	–	–	–	–	% Residual activity PI & II, final conc. 1 ug/ml (PI & II [1]; [9]): 96.5%; effect of inhibitor on PIII (PIII [2]): inhibited; % Residual activity PIII, final conc. 1 ug/ml (PIII [2]; [9]): 33.4%
[Zn+2] [Zn++]	103.1%	266.7 HU/ml	90.4%	194.0 HU/ml	–	–
CC(C)[C@H](NC(=O)[C@H](CCCNC(=N)N)NC(=O)N[C@@H](Cc1ccccc1)C(=O)O)C(=O)N[C@H](C=O)CCCNC(=N)N [Antipain di-HCl] ({Phe-CO}-Arg-Val-Arg-aldehyde)	–	–	–	–	–	% Residual activity PI & II, final conc. 1 ug/ml (PI & II [1]; [9]): 102.9%; % Residual activity PIII, final conc. 1 ug/ml (PIII [2]; [9]): 89.7%
Pepsin	–	–	–	–	1.7-2.0	General proteolysis ([5]; Table 7, graded + to +++, literature): ++ +
B1	–	–	–	–	3.0	–
